Source: ChEMBL document CHEMBL3227918, “Synthesis and pharmacological evaluation of cis-3,4,4a,9a-tetrahydro-1H-pyrano[3,4-b]benzofuran-1-ones. Tricyclic analogues related to the antilipidemic drug clofibrate” (J Med Chem, 1979)

Columns and labels:
[1] = test system: Rattus norvegicus; test: Antilipidemic activity against Sprague-Dawley rat assessed as increase in liver NADPH:cyt c reductase activity at 0.4 mmol/kg, po twice daily for 7 days (reference value: 164 +/- 16.7 nmol/mg/min); assay type: functional
[2] = test system: Rattus norvegicus; test: Antilipidemic activity against Sprague-Dawley rat assessed as liver triglyceride level per gram of tissue at 0.4 mmol/kg, po twice daily for 7 days (reference value: 3.87 +/- 0.59 mg); assay type: functional
[3] = test system: Rattus norvegicus; test: Effect on liver weight in Sprague-Dawley rat at 0.4 mmol/kg, po twice daily for 7 days (reference value: 11.8 +/- 0.93 g); assay type: ADME, organism-based; settings: in vivo, 168 h
[4] = test system: Rattus norvegicus; test: Antilipidemic activity against Sprague-Dawley rat assessed as increase in liver cyt b activity measured per mg of protein at 0.4 mmol/kg, po twice daily for 7 days (reference value: 0.310 +/- 0.052 nmol); assay type: functional
[5] = test system: Rattus norvegicus; test: Antilipidemic activity against Sprague-Dawley rat assessed as liver cholesterol level per gram of tissue at 0.4 mmol/kg, po twice daily for 7 days (reference value: 2.96 +/- 0.42 mg); assay type: functional
[6] = molecular target: T1, 3-hydroxy-3-methylglutaryl-coenzyme A reductase (Rattus norvegicus) (UniProt P51639); test: Inhibition of Sprague-Dawley rat liver microsome HMG-CoA reductase activity assessed as mevalonic acid formation form DL-3-hydroxy-3-methylglutaryl[3-14C]coenzyme by scintillation counting (reference value: 13.2 +/- 3.30 nmol/mg/h)
T1 sequence (whole entry): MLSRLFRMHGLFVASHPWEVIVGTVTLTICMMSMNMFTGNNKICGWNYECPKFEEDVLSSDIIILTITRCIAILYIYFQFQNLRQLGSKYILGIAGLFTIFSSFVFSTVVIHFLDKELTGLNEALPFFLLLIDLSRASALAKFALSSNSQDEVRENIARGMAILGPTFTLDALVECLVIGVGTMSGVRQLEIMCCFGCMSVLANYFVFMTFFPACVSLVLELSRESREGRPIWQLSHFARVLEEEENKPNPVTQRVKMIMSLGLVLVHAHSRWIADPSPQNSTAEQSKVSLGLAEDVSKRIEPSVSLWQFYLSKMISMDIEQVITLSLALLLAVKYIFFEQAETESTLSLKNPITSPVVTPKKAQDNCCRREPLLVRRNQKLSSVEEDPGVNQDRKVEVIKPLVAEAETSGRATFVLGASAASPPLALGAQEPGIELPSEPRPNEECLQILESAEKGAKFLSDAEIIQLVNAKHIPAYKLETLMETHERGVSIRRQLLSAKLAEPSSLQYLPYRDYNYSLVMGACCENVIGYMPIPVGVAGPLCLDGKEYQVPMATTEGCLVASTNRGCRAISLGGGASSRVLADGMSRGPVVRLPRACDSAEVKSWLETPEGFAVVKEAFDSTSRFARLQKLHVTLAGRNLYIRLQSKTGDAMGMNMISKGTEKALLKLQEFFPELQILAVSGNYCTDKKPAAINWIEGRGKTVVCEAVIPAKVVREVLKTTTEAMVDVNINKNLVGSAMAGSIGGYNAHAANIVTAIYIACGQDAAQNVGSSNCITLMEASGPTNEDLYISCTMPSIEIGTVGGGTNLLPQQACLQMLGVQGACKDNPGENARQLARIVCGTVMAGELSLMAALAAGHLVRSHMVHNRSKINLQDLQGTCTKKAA

[7] = test system: Rattus norvegicus; test: Effect on microsomal protein content in Sprague-Dawley rat at 0.4 mmol/kg, po twice daily for 7 days (reference value: 25.8 +/- 1.17 mg/g); assay type: functional
[8] = test system: Rattus norvegicus; test: Antilipidemic activity against Sprague-Dawley rat assessed as increase in liver cyt P-450 activity measured per mg of protein at 0.4 mmol/kg, po twice daily for 7 days (reference value: 0.833 +/- 0.0644 nmol); assay type: functional
[9] = test system: Rattus norvegicus; test: Antilipidemic activity against Sprague-Dawley rat assessed as increase in liver ethylmorphine N-demethylase activity measured as HCHO formation per mg/min at 0.4 mmol/kg, po twice daily for 7 days (reference value: 6.48 +/- 0.70 nmol); assay type: functional
[10] = test system: Rattus norvegicus; test: Antilipidemic activity against Sprague-Dawley rat assessed as increase in liver to body weight at 0.4 mmol/kg, po twice daily for 7 days (reference value: 3.96 +/- 0.20 mg/g); assay type: functional

| Activity [3] [g] | Activity [6] [nmol/mg/h] | SMILES | Activity [1] [nmol/mg/min] | Activity [2] [mg] | Activity [4] [nmol] | Activity [5] [mg] | Activity [7] [mg/g] | Activity [8] [nmol] | Activity [9] [nmol] | Activity [10] [%] |
| --- | --- | --- | --- | --- | --- | --- | --- | --- | --- | --- |
| 14.1 | 8.2 | C[C@@]12Oc3ccc(Cl)cc3[C@@H]1CCOC2=O (relative stereo) | 315 | 7.75 | 0.421 | 3.19 | 31.9 | 1.62 | 11.1 | 4.56 |
| 12.1 | 11 | O=C1OCC[C@H]2c3cc(Cl)ccc3O[C@@H]12 (relative stereo) | 210 | 5.66 | 0.292 | 2.93 | 25.2 | 0.962 | 7.96 | 4.03 |
| 15.1 | 11.3 | CCOC(=O)C(C)(C)Oc1ccc(Cl)cc1 [CLOFIBRATE] | 246 | 4.65 | 0.293 | 2.59 | 29 | 1.06 | 7.82 | 4.84 |
